# Test results as given in patent US20250026776A1, “Method for Simultaneously Separating and Purifying Two Galloylated Myricitrins from Morella rubra Leaves, and Use therefor” (Zhejiang University, priority 2022, published 2025).
# Where two headings read alike, the source gives them in different places.
# Assays:
# α-glucosidase [1] = details: cited from earlier work
# α-glucosidase [2] = assay: α-glucosidase inhibition assay (PNPG hydrolysis, absorbance at 405 nm); assay type: biochemical; details: α-glucosidase 0.2 U/mL, phosphate buffer pH 6.8, 37° C., PNPG substrate, IC50 calculated with SPSS, read-out: α-glucosidase inhibitory activity IC50
# Protocol: The concentration of pNP in the reaction solution, as measured by a plate reader, allows for the detection of the sample's ability to inhibit the activity of α-glucosidase. […] The mixture is then incubated at 37° C. for 15 minutes, after which 20 μL of PNPG solution (2.5 mM) is added. After a 15-minute reaction at 37° C., 80 μL of Na2CO3 solution (2.5 mM) is added, and the absorbance at 405 nm (ODtest) is measured using a plate reader. […] The formula for calculating the enzyme activity inhibition rate is as follows: [formula] The inhibitory effect of the tested monomers on α-glucosidase a gradient concentrations was used to calculate the IC50 values with SPSS.
IC50 (α-glucosidase [2]) [nM],IC50 (α-glucosidase [2]; listed as myricetin-3-O-(4″-O-galloyl)-α-L-rhamnoside) [nM],Compound,"rank of α-glucosidase inhibitory activity among 27 dietary flavonoids (α-glucosidase [1]; comparative study of 27 dietary flavonoids (Jia Y, et al., 2019))","rank of α-glucosidase inhibitory activity among 15 types of flavonoids (α-glucosidase [1]; report on 15 types of flavonoids (He C., et al., 2019))"
1770,,O=c1c(O)c(-c2cc(O)c(O)c(O)c2)oc2cc(O)cc(O)c12 [myricetin],strongest inhibitor,strongest inhibitory effect
1770,15600,CC1OC(Oc2c(-c3cc(O)c(O)c(O)c3)oc3cc(O)cc(O)c3c2=O)C(O)C(O)C1OC(=O)c1cc(O)c(O)c(O)c1 [myricetin-3-O-(4″-galloyl)-α-L-rhamnoside],,
1320,,CC1OC(Oc2c(-c3cc(O)c(O)c(O)c3)oc3cc(O)cc(O)c3c2=O)C(OC(=O)c2cc(O)c(O)c(O)c2)C(O)C1O [myricetin-3-O-(2″-galloyl)-α-L-rhamnoside],,
